According to US12516053B2, “Bcl-2 inhibitors” (BEIGENE, LTD., priority 2019, dated 2026):
Where two headings read alike, the source gives them in different places.

What was measured:
[1] = tested on: RS4;11 (BCL-2 dependent acute lymphoblastic leukemia cell line); test: RS4;11 cell proliferation assay; type: cell-based; details: CellTiter-GLO, read-out: Cellular proliferation assay (IC50, nM) RS4
Procedure: RS4;11 Cell Proliferation Assay:
Each compound was serially diluted with 1 μM as the maximum concentration. To test the apoptotic effect of the compounds, the cells were seeded at 50,000 in 180 μl per well in 96-well plates and treated with 10-point dilution series of each compound for 48 hrs at 37° C. Cell viability was assessed after the treatment using CellTiter-GLO luminescent assay (Promega) according to the manufacturer's recommendations. Briefly, 30 μl of CellTiter-GLO reagent was added into 200 μl of cell culture, Mixture was agitated on an orbital shaker for 5 mins to ensure cell lysis followed by 7 mins incubation at room temperature to allow development and stabilization of luminescent signals, which corresponded to quantity of ATP and thus the quantity of metabolically active cells. Luminescent signals were measured using PHERAstar FS reader (BMG). Mean IC50 values for cell viability were determined with GraphPad Prism software.

[2] = tested on: Molt-4 (Bcl-xL-dependent ALL cell line); test: Molt-4 cell proliferation assay; type: cell-based; details: Homo sapiens, MOLT-4; CellTiter-GLO; read-out: Cellular proliferation assay (IC50, nM) Molt-4
From the text: Molt-4 Cell Proliferation Assay:
Each compound was serially diluted with 10 1M as the maximum concentration. The anti-proliferative IC50s of these compounds were similarly determined as a percentage of viable cells upon treatment compared to the untreated control using CellTiter-GLO luminescent assay.

[3] = molecular target: recombinant human Bcl-2-G101V protein (Homo sapiens, UniProt P10415, G101V); test: Bcl-2-G101V TR-FRET assay; type: binding
From the text: The IC50 for each compound was derived from fitting the data to the four-parameter logistic equation by Graphpad Prism software or Dotmatics.

[4] = molecular target: Recombinant human Bcl-2 protein (Homo sapiens, UniProt P10415); test: Bcl-2 TR-FRET assay; type: binding
Procedure: Compounds disclosed herein were tested for blocking of Bcl-2 protein with its ligand in an assay based on Time-Resolved Fluorescence Resonance Energy Transfer (TR-FRET) methodology. Recombinant human 0.05 nM Bcl-2 protein was pre-incubated with a serial dilution of compounds disclosed herein (top final concentration is 1 uM or 0.1 uM or 0.02 uM or 0.01 uM, 10 points) at room temperature for 0.5 hour in an assay buffer containing 20 mM potassium phosphate buffer, pH 7.5, 50 mM NaCl, 1 mM EDTA, 0.05% Tween-20, 0.01% BSA. […] The inhibition percentage of Bcl-2 interaction with its ligand in presence of increasing concentrations of compounds was calculated based on the TR-FRET signals. The IC50 for each compound was derived from fitting the data to the four-parameter logistic equation by Graphpad Prism software or Dotmatics.

BA/F3-BCL-2 G101V cells = BA/F3-BCL-2 G101V cells (Homo sapiens, UniProt P10415, G101V, cells depend on it); test: BA/F3 cell proliferation assay, Bcl-2 G101V; type: cell-based, Murine; details: 24 hrs treatment, 3% FBS, CellTiter-Glo, geometric mean of 3 experiments; read-out: Cellular proliferation assay (IC50, nM) Bcl-2 G101V; BaF3 cell
Procedure: (§1) BA/F3 cell Proliferation Assay:
(§2) The cells were treated with a 10-point dilution series of compounds for 24 hrs. After the compound treatment, 30 μl of CellTiter-Glo reagent was added in each well. The effects on proliferation were determined using Cell TiterGlo reagent (Promega) according to the manufacturer's instructions. Luminescent signals were measured using PHERAstar FS plate reader (BMG Labtech). ICS50 values for cell viability were determined with GraphPad Prism software and were the geometric mean of 3 independent experiments.

BA/F3-BCL-2 cells = BA/F3-BCL-2 cells (Homo sapiens, UniProt P10415); test: BA/F3 cell proliferation assay, BCL-2 wild type; type: cell-based, Murine
Procedure: as §1, §2

[5] = Homo sapiens, RS4-11, 48 hrs treatment
[6] = TR-FRET, 0.1 nM Bcl-2-G101V, FITC labeled Bak peptide 5 nM, read-out: Biochemical assay (IC50, nM) Bcl-2 G101V
[7] = TR-FRET, 0.05 nM Bcl-2, FITC labeled Bak peptide 0.5 nM, read-out: Biochemical assay (IC50, nM) Bcl-2 WT
[8] = 24 hrs treatment, 3% FBS, CellTiter-Glo, geometric mean of 3 experiments; read-out: Cellular proliferation assay (IC50, nM) Bcl-2 WT; BaF3 cell

| IC50 [1, 5] [nM] | IC50 [2] [nM] | GI50 (BA/F3-BCL-2 G101V cells) [nM] | IC50 [3, 6] [nM] | IC50 [4, 7] [nM] | IC50 (BA/F3-BCL-2 cells; [8]) [nM] | IC50 ([1]; 48 hrs treatment) [nM] | Compound | IC50 [3] [nM] | IC50 [4] [nM] | IC50 (BA/F3-BCL-2 cells; read-out: Cellular proliferation assay (IC50, nM) Bcl-2 WT; BaF3 cell; 24 hrs treatment, 3% FBS, CellTiter-Glo, geometric mean of 3 experiments) [nM] |
| --- | --- | --- | --- | --- | --- | --- | --- | --- | --- | --- |
| 4.2 | 2570 | – | – | – | – | – | CC1(C)CCC(CN2CCN(c3ccc(C(=O)NS(=O)(=O)c4ccc(NCC5CCOCC5)c([N+](=O)[O-])c4)c(Oc4cnc5[nH]ccc5c4)c3)CC2)=C(c2ccc(Cl)cc2)C1 [ABT-199, Venetoclax, reference compound] | – | – | – |
| 1.5 | – | 35.8 | 0.92 | 0.021 | 0.38 | – | [2H]C1([2H])CCC([2H])(c2ccccc2C(C)C)N1C1CC2(CCN(c3ccc(C(=O)NS(=O)(=O)c4cc5c(c([N+](=O)[O-])c4)N[C@H](C[C@H]4CC[C@H](O)CC4)CO5)c(Oc4cnc5[nH]ccc5c4)c3)CC2)C1 (stereo partly drawn) [Example A7, 2-((1H-pyrrolo[2,3-b]pyridin-5-yl)oxy)-N—(((R)-3-(((1r,4R)-4-hydroxycyclohexyl)methyl)-5-nitro-3,4-dihydro-2H-benzo[b][1,4]oxazin-7-yl)sulfonyl)-4-(2-(2-(2-isopropylphenyl)pyrrolidin-1-yl-2,5,5-d3)-7-azaspiro[3,5]nonan-7-v)benzamide] | – | – | – |
| 0.58 | 1420 | – | 1.2 | 0.018 | – | – | CC(C)c1ccccc1[C@@H]1CCCN1C1CC2(CCN(c3ccc(C(=O)NS(=O)(=O)c4ccc(NCC5(F)CCOCC5)c([N+](=O)[O-])c4)c(N4CCOc5nc6[nH]ccc6cc54)c3)CC2)C1 [Example B4, (S)-2-(2,3-dihydropyrrolo[3′,2′:5,6]pyrido[2,3-b][1,4]oxazin-1(6H)-yl)-N-((4-(((4-fluorotetrahydro-2H-pyran-4-yl)methyl)amino)-3-nitrophenyl)sulfonyl)-4-(2-(2-(2-isopropylphenyl)pyrrolidin-1-yl)-7-azaspiro[3,5]nonan-7-yl)benzamide] | – | – | – |
| 1 | – | 8.9 | 1.1 | 0.025 | 0.13 | – | CC(C)c1ccccc1[C@@H]1CCCN1C1CC2(CCN(c3ccc(C(=O)NS(=O)(=O)c4ccc(NC[C@H]5CC[C@](C)(O)CC5)c([N+](=O)[O-])c4)c(N4C[C@@H](C)Oc5nc6[nH]ccc6cc54)c3)CC2)C1 [Example B5, N-((4-((((1r,4r)-4-hydroxy-4-methylcyclohexyl)methyl)amino)-3-nitrophenyl)sulfonyl)-4-(2-((S)-2-(2-isopropylphenyl)pyrrolidin-1-yl)-7-azaspiro[3,5]nonan-7-yl)-2-((R)-3-methyl-2,3-dihydropyrrolo[3′,2′:5,6]pyrido[2,3-b][1,4]oxazin-1(6H)-yl)benzamide] | – | – | – |
| 0.34 | – | 31.9 | 1.2 | 0.027 | 1.1 | – | CC(C)c1ccccc1[C@@H]1CCCN1C1CC2(CCN(c3ccc(C(=O)NS(=O)(=O)c4ccc(NC[C@H]5CC[C@](C)(O)CC5)c([N+](=O)[O-])c4)c(N4C[C@H](C)Oc5nc6[nH]ccc6cc54)c3)CC2)C1 [Example B6, N-((4-((((1r,4r)-4-hydroxy-4-methylcyclohexyl)methyl)amino)-3-nitrophenyl)sulfonyl)-4-(2-((S)-2-(2-isopropylphenyl)pyrrolidin-1-yl)-7-azaspiro[3,5]nonan-7-yl)-2-((S)-3-methyl-2,3-dihydropyrrolo[3′,2′:5,6]pyrido[2,3-b][1,4]oxazin-1(6H)-yl)benzamide] | – | – | – |
| 0.8 | – | 11.2 | 1.5 | 0.048 | 0.18 | – | CC(C)c1ccccc1[C@@H]1CCCN1C1CC2(CCN(c3ccc(C(=O)NS(=O)(=O)c4cc5c(c([N+](=O)[O-])c4)N[C@H](C[C@H]4CC[C@H](O)CC4)CO5)c(N4C[C@@H](C)Oc5nc6[nH]ccc6cc54)c3)CC2)C1 [Example B7, N—(((R)-3-(((1r,4R)-4-hydroxycyclohexyl)methyl)-5-nitro-3,4-dihydro-2H-benzo[b][1,4]oxazin-7-yl)sulfonyl)-4-(2-((S)-2-(2-isopropylphenyl)pyrrolidin-1-yl)-7-azaspiro[3,5]nonan-7-yl)-2-((R)-3-methyl-2,3-dihydropyrrolo[3′,2′:5,6]pyrido[2,3-b][1,4]oxazin-1(6H)-yl)benzamide] | – | – | – |
| – | – | 41.2 | 3.3 | 0.055 | 0.65 | 0.7 | CC(C)c1ccccc1[C@@H]1CCCN1C1CC2(CCN(c3ccc(C(=O)NS(=O)(=O)c4cc5c(c([N+](=O)[O-])c4)N[C@H](CC4CCC(O)CC4)CO5)c(N4C[C@H](C)Oc5nc6[nH]ccc6cc54)c3)CC2)C1 (stereo partly drawn) [Example B8, N—(((R)-3-(((1r,4R)-4-hydroxycyclohexyl)methyl)-5-nitro-3,4-dihydro-2H-benzo[b][1,4]oxazin-7-yl)sulfonyl)-4-(2-((S)-2-(2-isopropylphenyl)pyrrolidin-1-yl)-7-azaspiro[3,5]nonan-7-yl)-2-((S)-3-methyl-2,3-dihydropyrrolo[3′,2′:5,6]pyrido[2,3-b][1,4]oxazin-1(6H)-yl)benzamide] | – | – | – |
| 0.5 | – | 34.9 | 3.3 | 0.038 | 0.83 | – | CC(C)c1ccccc1[C@@H]1CCCN1C1CC2(CCN(c3ccc(C(=O)NS(=O)(=O)c4cc5c(c([N+](=O)[O-])c4)N[C@H](C[C@H]4CC[C@H](O)CC4)CO5)c(N4CCCOc5nc6[nH]ccc6cc54)c3)CC2)C1 [Example B9, 2-(3,4-dihydro-2H-pyrrolo[3′,2′:5,6]pyrido[2,3-b][1,4]oxazepin-1(7H)-yl)-N—(((R)-3-(((1R,4R)-4-hydroxycyclohexyl)methyl)-5-nitro-3,4-dihydro-2H-benzo[b][1,4]oxazin-7-yl)sulfonyl)-4-(2-((S)-2-(2-isopropylphenyl)pyrrolidin-1-yl)-7-azaspiro[3,5]nonan-7-yl)benzamide] | – | – | – |
| 1 | > 10000 | – | 1.6 | 0.04 | – | – | CC(C)c1ccccc1[C@@H]1CCCN1C1CC2(CCN(c3ccc(C(=O)NS(=O)(=O)c4ccc(NC[C@H]5CC[C@](C)(O)CC5)c([N+](=O)[O-])c4)c(N4c5cc6cc[nH]c6nc5OCC4C)c3)CC2)C1 (stereo partly drawn) [Example B10, N-((4-((((1R,4R)-4-hydroxy-4-methylcyclohexyl)methyl)amino)-3-nitrophenyl)sulfonyl)-4-(2-((S)-2-(2-isopropylphenyl)pyrrolidin-1-yl)-7-azaspiro[3,5]nonan-7-yl)-2-(2-methyl-2,3-dihydropyrrolo[3′2′:5,6]pyrido[2,3-b][1,4]oxazin-1(6H)-yl)benzamide] | – | – | – |

| Compound | IC50 [1, 5] [nM] | IC50 [2] [nM] | GI50 (BA/F3-BCL-2 G101V cells) [nM] | IC50 [3, 6] [nM] | IC50 [4, 7] [nM] | IC50 (BA/F3-BCL-2 cells; [8]) [nM] | IC50 ([1]; 48 hrs treatment) [nM] | IC50 [3] [nM] | IC50 [4] [nM] | IC50 (BA/F3-BCL-2 cells; read-out: Cellular proliferation assay (IC50, nM) Bcl-2 WT; BaF3 cell; 24 hrs treatment, 3% FBS, CellTiter-Glo, geometric mean of 3 experiments) [nM] |
| --- | --- | --- | --- | --- | --- | --- | --- | --- | --- | --- |
| [2H]C1([2H])CC2(CC(N3CCC[C@H]3c3ccccc3C(C)C)C2)CC([2H])([2H])N1c1ccc(C(=O)NS(=O)(=O)c2cc3c(c([N+](=O)[O-])c2)N[C@H](C[C@H]2CC[C@H](O)CC2)CO3)c(Oc2cnc3[nH]ccc3c2)c1 [Example A6, 2-((1H-pyrrolo[2,3-b]pyridin-5-yl)oxy)-N—(((R)-3-(((1r,4R)-4-hydroxycyclohexyl)methyl)-5-nitro-3,4-dihydro-2H-benzo[b][1,4]oxazin-7-yl)sulfonyl)-4-(2-((S)-2-(2-isopropylphenyl)pyrrolidin-1-yl)-7-azaspiro[3,5]nonan-7-yl-6,6,8,8-d4)benzamide] | 1.3 | – | 21.1 | – | – | – | – | 0.51 | 0.021 | 0.25 |
